Source: patent US20250163057A1, “DCN-1 MODULATING COMPOUNDS AND METHODS OF USE THEREOF” (Cellarity, Inc., priority 2023, published 2025)
Where two headings read alike, the source gives them in different places.

Columns and labels:
[1] = biological target: DCN1 (DCUND1) protein PONY domain (Homo sapiens (Human), UniProt Q96GG9); test: TR-FRET assay, DCN1 binding with FAM-labeled probe
How it was run: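 Biotinylated DCN1 PONY domain, labeled with streptavidin-Tb, was competed against a FAM-labeled non-covalent DCN1 inhibitor probe in buffer with TritonX and 200 mM NaCl. Conditions were 5 nM DCN1 with 20 nM FAM-probe, or 0.31 nM DCN1 with 100 nM FAM-plus 800 nM unlabeled probe. The TR-FRET ratio was read at 1, 5 and 24 h (0.1% DMSO).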

[2] = system: Cullin-3 (CUL3) neddylation; test: AlphaLISA assay for Cullin-3 (CUL3) neddylation in TF 1 cells; format: cell-based; details: Homo sapiens, 3 hours treatment
How it was run: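 TF 1 cells in unsupplemented IMDM treated with compound concentrations for 3 h, then lysed. CUL3 neddylation detected by AlphaLISA (biotinylated anti-NEDD8, anti-CUL3 acceptor beads overnight, streptavidin donor beads 1 h); normalized to vehicle (0%) and 1 μM DI-1548 (100%), IC50 from Hill fits.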

[3] = 24 hr after treatment with compound, read-out: TR FRET IC50 24 hr
[4] = TR FRET IC50 1 hr (nM), 1 hr after treatment with compound
[5] = read-out: TR FRET IC50 1 hr, 1 hr after treatment with compound

DCN1 (DCUND1) protein PONY domain, sequence (Q96GG9 60-248): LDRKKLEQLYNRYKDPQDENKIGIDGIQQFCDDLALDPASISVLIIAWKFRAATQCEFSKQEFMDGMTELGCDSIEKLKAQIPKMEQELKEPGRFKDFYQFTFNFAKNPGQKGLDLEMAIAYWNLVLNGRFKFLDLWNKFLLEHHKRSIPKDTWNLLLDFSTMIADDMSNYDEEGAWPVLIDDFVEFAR

SMILES | IC50 [1, 3] [nM] | IC50 [1, 4] [nM] | IC50 ([2]; TF-1, 3 h) [nM] | IC50 [1, 5] [nM] | IC50 [2] [nM]
CCN1C(=O)[C@@H](NC(=O)c2nccc(C(F)(F)F)n2)[C@H](c2ccc(F)cc2)c2c(CNC(=O)CC#N)nn(-c3ccccc3)c21 [Compound I-452, N-((4R,5S)-3-((2-cyanoacetamido)methyl)-7-ethyl-4-(4-fluorophenyl)-6-oxo-1-phenyl-4,5,6,7-tetrahydro-1H-pyrazolo[3,4-b]pyridin-5-yl)-4-(trifluoromethyl)pyrimidine-2-carboxamide] | 1000 to 3000 | 1000 to 3000 | > 1000 |  | 
CCN1C(=O)[C@H](NC(=O)c2cccc(C(F)(F)F)c2)[C@H](c2ccc(F)cc2)c2c(C(=O)N3CCNC[C@H]3C#N)nn(-c3ccccc3)c21 [Compound I-453] | 200 to 1000 | 1000 to 3000 | > 1000 |  | 
CCN1C(=O)[C@@H](NC(=O)c2cccc(C(F)(F)F)c2)[C@@H](C2CC2)c2c(C(=O)N3CCC[C@H]3C#N)nn(C3CC3)c21 [Compound I-454] | 200 to 1000 | 1000 to 3000 | ≤ 100 |  | 
CCCn1nc(C(=O)N(CC#N)C2CC2)c2c1N(CC)C(=O)[C@H](NC(=O)c1cccc(C(F)(F)F)c1)[C@@H]2C1CC1 [Compound I-455] | 1000 to 3000 | 1000 to 3000 | > 1000 |  | 
CCN1C(=O)[C@H](NC(=O)c2cccc(C(F)(F)F)c2)[C@H](c2ccc(F)cc2)c2c(C(=O)N3CC[C@@H]3C#N)nn(-c3ccccc3)c21 [Compound I-457] | 1000 to 3000 | 1000 to 3000 | > 1000 |  | 
CCN1C(=O)[C@@H](NC(=O)c2nccc(C(F)(F)F)n2)[C@H](c2ccc(F)cc2)c2c(CNC(=O)/C=C/C(=O)N(C)C)nn(-c3ccccc3)c21 [Compound I-460] | 200 to 1000 | 200 to 1000 | > 1000 |  | 
CCN1C(=O)[C@H](NC(=O)c2cccc(C(F)(F)F)c2)[C@H](c2ccc(F)cc2)c2c(C(=O)N3[C@H](C#N)C[C@@H]4C[C@@H]43)nn(-c3ccccc3)c21 [Compound I-463] | 1000 to 3000 | 1000 to 3000 | > 1000 |  | 
CCN1C(=O)[C@@H](NC(=O)c2cccc(C(F)(F)F)c2)[C@@H](c2ccc(F)cc2)c2c(C(=O)N3CS(=O)(=O)C[C@H]3C#N)nn(-c3ccccc3)c21 [Compound I-465] | ≤ 200 |  | ≤ 100 | ≤ 200 | 
CCCn1nc(C(=O)N2CCC[C@H]2C#N)c2c1N(CC)C(=O)[C@@H](NC(=O)c1cccc(C(F)(F)F)c1)[C@H]2C1CC1 [Compound I-467] | ≤ 200 | 1000 to 3000 | 100 to 1000 |  | 
CCN1C(=O)[C@@H](NC(=O)c2cccc(C(F)(F)F)c2)[C@@H](C2CCCC2)c2c(C(=O)N3CCC[C@H]3C#N)nn(C3CCOCC3)c21 [Compound I-469] | ≤ 200 | 1000 to 3000 | ≤ 100 |  | 
CCN1C(=O)[C@@H](NC(=O)c2cccc(C(F)(F)F)c2)[C@@H](c2ccc(F)cc2)c2c(C(=O)N(C)[C@H](C#N)CCN(C)C3COC3)nn(C3CCOCC3)c21 [Compound I-470] | ≤ 200 |  | ≤ 100 | ≤ 200 | 
COCCN1C(=O)[C@@H](NC(=O)c2cccc(C(F)(F)F)c2)[C@@H](C2CC2)c2c(C(=O)N3[C@H](C#N)C[C@H]4C[C@H]43)nn(C3CCOCC3)c21 [Compound I-474] | 200 to 1000 | 1000 to 3000 | 100 to 1000 |  | 
CCN1C(=O)[C@@H](NC(=O)CCc2ccccc2)[C@@H](C2CC2)c2c(C(=O)N3[C@H](C#N)C[C@H]4C[C@H]43)nn(C3CCOCC3)c21 [Compound I-476] | 1000 to 3000 | 1000 to 3000 | > 1000 |  | 
CCN1C(=O)[C@@H](NC(=O)c2cccc(C(F)(F)F)c2)[C@@H](C2CCCC2)c2c(C(=O)N(CC#N)C3CC3)nn(C3CCOCC3)c21 [Compound I-478] | ≤ 200 | 1000 to 3000 | 100 to 1000 |  | 
CCCn1nc(C(=O)N2CCC[C@H]2C#N)c2c1N(CC)C(=O)[C@H](NC(=O)c1cccc(C(F)(F)F)c1)[C@@H]2c1ccc(F)cc1 [Compound I-479] | 1000 to 3000 | 1000 to 3000 | > 1000 |  | 
CCN1C(=O)[C@H](NC(=O)c2cccc(C(F)(F)F)c2)[C@H](c2ccc(F)cc2)c2c(C(=O)N3CCC[C@H]3C#N)nn(-c3cccc(OCCCN(C)C4COC4)c3)c21 [Compound I-480, N-((4R,5R)-3-((S)-2-cyanopyrrolidine-1-carbonyl)-7-ethyl-4-(4-fluorophenyl)-1-(3-(3-(methyl(oxetan-3-yl)amino)propoxy)phenyl)-6-oxo-4,5,6,7-tetrahydro-1H-pyrazolo[3,4-b]pyridin-5-yl)-3-(trifluoromethyl)benzamide] | 1000 to 3000 | 1000 to 3000 | > 1000 |  | 

SMILES | IC50 [1, 3] [nM] | IC50 [1, 4] [nM] | IC50 ([2]; TF-1, 3 h) [nM] | IC50 [1, 5] [nM] | IC50 [2] [nM]
CCN1C(=O)[C@@H](NC(=O)c2csc(C)c2)[C@@H](C2CC2)c2c(C(=O)N3[C@H](C#N)C[C@H]4C[C@H]43)nn(C3CCOCC3)c21 [Compound I-481] | ≤ 200 |  |  | ≤ 200 | ≤ 100
CCN1C(=O)[C@@H](NC(=O)c2ccc3scnc3c2)[C@@H](C2CC2)c2c(C(=O)N3[C@H](C#N)C[C@H]4C[C@H]43)nn(C3CCOCC3)c21 [Compound I-483] | 200 to 1000 | 1000 to 3000 | > 1000 |  | 
CCN1C(=O)[C@@H](NC(=O)c2cccc(C(F)(F)F)c2)[C@@H](c2ccc(F)cc2)c2c([C@@H](CO)NC#N)nn(-c3ccccc3)c21 [Compound I-487] | ≤ 200 | 200 to 1000 | 100 to 1000 |  | 
CCN1C(=O)[C@@H](NC(=O)c2cccc(C(F)(F)F)c2)[C@@H](c2ccc(F)cc2)c2c([C@H](CCCO)NC#N)nn(-c3ccccc3)c21 [Compound I-489] | ≤ 200 | 200 to 1000 | ≤ 100 |  | 
CCN1C(=O)[C@@H](NC(=O)c2cccc(C(F)(F)F)c2)[C@@H](c2ccc(F)cc2)c2c(CNC/C=C/C(=O)N(C)C)nn(-c3ccccc3)c21 [Compound I-490] | ≤ 200 |  | 100 to 1000 | ≤ 200 | 
CCN1C(=O)[C@@H](NC(=O)c2cccc(C(F)(F)F)c2)[C@@H](C2CC2)c2c(C(=O)N(C)C(C)C#N)nn(C3CC3)c21 (stereo partly drawn) [Compound I-492] | 200 to 1000 | 200 to 1000 | ≤ 100 |  | 
CCN1C(=O)[C@H](NC(=O)c2cccc(C(F)(F)F)c2)[C@H](c2ccc(C)cc2)c2c(C(=O)N(C)CC#N)nn(C3CC3)c21 [Compound I-494] | 1000 to 3000 | 1000 to 3000 | > 1000 |  | 
CCN1C(=O)[C@@H](NC(=O)c2nccc(C(F)(F)F)n2)[C@H](c2ccc(F)cc2)c2c(CNC(=O)/C=C/C(=O)N3CCCC3)nn(-c3ccccc3)c21 [Compound I-495] | 200 to 1000 | 200 to 1000 | > 1000 |  | 
CCN1C(=O)[C@@H](NC(=O)c2cccc(C(F)(F)F)c2)[C@@H](c2ccc(F)cc2)c2c(CN(C#N)CCCN3CCOCC3)nn(-c3ccccc3)c21 [Compound I-496] | ≤ 200 |  | ≤ 100 | ≤ 200 | 
CCN1C(=O)[C@@H](NC(=O)c2cccc(C(F)(F)F)c2)[C@@H](c2ccc(F)cc2)c2c([C@@H](CCC(O)CO)NC#N)nn(-c3ccccc3)c21 (stereo partly drawn) [Compound I-497] | ≤ 200 |  | ≤ 100 | ≤ 200 | 
C[C@@H](NC#N)c1nn(-c2ccccc2)c2c1[C@@H](c1ccc(F)cc1)[C@@H](NC(=O)c1cccc(C(F)(F)F)c1)C(=O)N2CCO [Compound I-498] | 1000 to 3000 | 1000 to 3000 | > 1000 |  | 
CCN1C(=O)[C@@H](NC(=O)c2cccc(C(F)(F)F)c2)[C@@H](c2ccc(F)cc2)c2c([C@@H](C)NC(N)=O)nn(-c3ccccc3)c21 [Compound I-499, N-((4S,5S)-7-ethyl-4-(4-fluorophenyl)-6-oxo-1-phenyl-3-((R)-1-ureidoethyl)-4,5,6,7-tetrahydro-1H-pyrazolo[3,4-b]pyridin-5-yl)-3-(trifluoromethyl)benzamide] | 1000 to 3000 | 1000 to 3000 | 100 to 1000 |  | 
CCN1C(=O)[C@@H](NC(=O)c2cccc(C(F)(F)F)c2)[C@@H](C2CC2)c2c(C(=O)N3C[C@@H](NC)C[C@H]3C#N)nn(C3CCOCC3)c21 [Compound I-503, N-((4S,5S)-3-((2S,4S)-2-cyano-4-(methylamino)pyrrolidine-1-carbonyl)-4-cyclopropyl-7-ethyl-6-oxo-1-(tetrahydro-2H-pyran-4-yl)-4,5,6,7-tetrahydro-1H-pyrazolo[3,4-b]pyridin-5-yl)-3-(trifluoromethyl)benzamide] | 200 to 1000 | 1000 to 3000 | > 1000 |  | 
CCN1C(=O)[C@@H](NC(=O)c2cnc(C)cc2Cl)[C@@H](C2CC2)c2c(C(=O)N3[C@H](C#N)C[C@H]4C[C@H]43)nn(C3CCOCC3)c21 [Compound I-506] | 1000 to 3000 | 1000 to 3000 | > 1000 |  | 
CCN1C(=O)[C@@H](NC(=O)c2cccc(C(F)(F)F)c2F)[C@@H](C2CC2)c2c(C(=O)N3[C@H](C#N)C[C@H]4C[C@H]43)nn(C3CCOCC3)c21 [Compound I-514] | ≤ 200 |  |  | ≤ 200 | ≤ 100
CCN1C(=O)[C@@H](NC(=O)c2cccc(C(F)(F)F)c2)[C@@H](C2CCC2)c2c(C(=O)N(CC#N)C3CC3)nn(C3CCOCC3)c21 [Compound I-515] | ≤ 200 | 200 to 1000 | 100 to 1000 |  | 
